Experiment: Water solubility
Type: physicochemical
Conditions: in words

solubility in water: very poor
Structure (SMILES): COC(=O)c1ccc2c(c1)NC(=O)/C2=C(\Nc1ccc(N(C)C(=O)CN2CCN(C)CC2)cc1)c1ccccc1 [nintedanib (free base)]
